# Data as given in patent US20260041620A1, “NOVEL AMINO ACID BASED SALTS, COMPOSITIONS AND METHODS FOR TREATING SKIN AND IMPROVING SKIN REJUVENATION AND LONGEVITY” (Sytheon Ltd, priority 2023, published 2026).
# Like-named read-outs stand apart in the source and are kept apart here.
# How the values were obtained:
# HDAC 11 = molecular target: T1, HDAC 11 (Homo sapiens, UniProt Q96DB2); assay: HDAC 11 fluorogenic assay kit; type: biochemical
# T1 construct: purchased BPS Biosciences 50687
# T1 sequence (Q96DB2 1-347): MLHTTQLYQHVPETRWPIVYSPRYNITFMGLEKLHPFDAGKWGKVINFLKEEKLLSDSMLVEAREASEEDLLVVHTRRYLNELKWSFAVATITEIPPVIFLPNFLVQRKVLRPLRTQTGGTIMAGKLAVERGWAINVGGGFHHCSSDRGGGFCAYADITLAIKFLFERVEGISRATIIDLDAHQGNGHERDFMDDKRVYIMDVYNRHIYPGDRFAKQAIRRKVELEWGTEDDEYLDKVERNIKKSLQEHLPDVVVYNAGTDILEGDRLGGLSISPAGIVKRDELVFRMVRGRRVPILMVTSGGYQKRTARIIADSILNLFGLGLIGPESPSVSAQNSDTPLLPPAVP
# Description: (§1) Test materials were stored at room temperature and stock solutions were prepared at 20 mg/ml in DMSO. Further dilutions were made in sterile distilled water immediately before being added to the reaction mixture containing a substrate, and the reaction was triggered by the addition of purified HDAC enzymes, Double distilled water was the negative control and trichostatin (1.5 ug/ml) was used as a positive control for validation of each study. The test procedure was as directed in the assay kits. The products of the reactions were measured by fluorometry at ex/em 350/450 nm using multi-well plate fluorometer Cytofluor 4000 (Applied Biosystem, Foster City, CA) or using SpectraMax i3× Multi-Mode Detection Platform from Molecular Devices (Sunnyvale, CA).
# (§2) Statistical significance was assessed with a two-tail Student test. Deviations of ≤20% as compared to water control with p values below 0.05 were considered statistically significant.
# FAAH = molecular target: T2, FAAH (Homo sapiens, UniProt O00519); assay: FAAH fluorescence-based inhibitory assay; type: biochemical
# T2 sequence (O00519 1-579): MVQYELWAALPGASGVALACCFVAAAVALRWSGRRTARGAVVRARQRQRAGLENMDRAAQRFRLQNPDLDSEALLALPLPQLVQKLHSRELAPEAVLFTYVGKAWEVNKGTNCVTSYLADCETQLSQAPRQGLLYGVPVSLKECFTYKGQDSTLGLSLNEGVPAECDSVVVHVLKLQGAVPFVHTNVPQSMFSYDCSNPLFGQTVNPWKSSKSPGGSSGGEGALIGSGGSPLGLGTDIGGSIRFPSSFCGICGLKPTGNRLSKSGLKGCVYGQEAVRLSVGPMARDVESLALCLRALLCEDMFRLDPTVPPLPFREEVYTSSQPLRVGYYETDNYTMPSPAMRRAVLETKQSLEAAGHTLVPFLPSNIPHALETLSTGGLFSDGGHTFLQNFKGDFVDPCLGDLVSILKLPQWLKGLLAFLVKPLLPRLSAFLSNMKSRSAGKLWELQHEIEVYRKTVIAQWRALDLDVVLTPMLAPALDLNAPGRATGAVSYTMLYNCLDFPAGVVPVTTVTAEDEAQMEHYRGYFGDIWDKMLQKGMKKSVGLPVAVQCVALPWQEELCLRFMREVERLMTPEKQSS
# FABP-5 = molecular target: T3, FABP-5 (Homo sapiens, UniProt Q01469); assay: FABP-5 ELISA inhibitory assay; type: biochemical
# T3 construct: purchased Raybiotech 268-10276-1
# T3 sequence (Q01469 whole entry): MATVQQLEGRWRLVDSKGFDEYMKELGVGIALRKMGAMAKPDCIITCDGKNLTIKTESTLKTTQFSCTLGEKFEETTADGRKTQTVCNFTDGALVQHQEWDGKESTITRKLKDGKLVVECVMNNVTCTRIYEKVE
# MAGL = molecular target: T4, MAGL (Homo sapiens, UniProt Q99685); assay: MAGL inhibitory assay; type: biochemical
# T4 construct: purchased Cayman 10007812
# T4 sequence (Q99685 1-303): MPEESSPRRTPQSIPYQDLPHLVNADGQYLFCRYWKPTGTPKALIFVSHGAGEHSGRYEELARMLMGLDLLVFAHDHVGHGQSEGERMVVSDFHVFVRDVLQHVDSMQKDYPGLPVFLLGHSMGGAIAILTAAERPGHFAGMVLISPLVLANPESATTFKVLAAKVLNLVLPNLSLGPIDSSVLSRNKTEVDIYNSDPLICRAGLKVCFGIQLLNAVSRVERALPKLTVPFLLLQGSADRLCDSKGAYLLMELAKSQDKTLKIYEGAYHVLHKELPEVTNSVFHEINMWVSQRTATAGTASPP
# Description: Each study was performed in duplicate and the results averaged.
# The final concentration in each well was 10 μl of sample, 5.6 μM MAGL (Cayman Catalog #10007812) and 23.6 μM 2-Arachidonoyl Glycerol (Cayman catalog #62160).
# HDAC2 = HDAC2 (Homo sapiens, UniProt Q92769)
# HDAC2, sequence (Q92769 whole entry): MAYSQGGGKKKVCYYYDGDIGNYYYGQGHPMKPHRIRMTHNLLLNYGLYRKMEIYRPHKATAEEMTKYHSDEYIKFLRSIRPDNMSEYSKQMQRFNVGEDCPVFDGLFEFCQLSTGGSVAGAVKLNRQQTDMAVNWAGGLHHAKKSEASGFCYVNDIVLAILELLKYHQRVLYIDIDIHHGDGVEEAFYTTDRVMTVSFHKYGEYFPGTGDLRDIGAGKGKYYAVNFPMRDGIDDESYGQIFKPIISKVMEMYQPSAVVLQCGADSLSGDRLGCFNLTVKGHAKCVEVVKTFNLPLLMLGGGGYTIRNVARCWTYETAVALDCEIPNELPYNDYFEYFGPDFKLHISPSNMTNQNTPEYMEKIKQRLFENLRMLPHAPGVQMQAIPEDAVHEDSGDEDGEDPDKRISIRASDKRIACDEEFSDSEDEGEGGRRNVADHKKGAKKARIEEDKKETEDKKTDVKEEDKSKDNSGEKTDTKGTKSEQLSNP
# Description: as §1, §2
# HDAC 5 = HDAC 5 (Homo sapiens, UniProt Q9UQL6)
# HDAC 5, sequence (Q9UQL6 whole entry): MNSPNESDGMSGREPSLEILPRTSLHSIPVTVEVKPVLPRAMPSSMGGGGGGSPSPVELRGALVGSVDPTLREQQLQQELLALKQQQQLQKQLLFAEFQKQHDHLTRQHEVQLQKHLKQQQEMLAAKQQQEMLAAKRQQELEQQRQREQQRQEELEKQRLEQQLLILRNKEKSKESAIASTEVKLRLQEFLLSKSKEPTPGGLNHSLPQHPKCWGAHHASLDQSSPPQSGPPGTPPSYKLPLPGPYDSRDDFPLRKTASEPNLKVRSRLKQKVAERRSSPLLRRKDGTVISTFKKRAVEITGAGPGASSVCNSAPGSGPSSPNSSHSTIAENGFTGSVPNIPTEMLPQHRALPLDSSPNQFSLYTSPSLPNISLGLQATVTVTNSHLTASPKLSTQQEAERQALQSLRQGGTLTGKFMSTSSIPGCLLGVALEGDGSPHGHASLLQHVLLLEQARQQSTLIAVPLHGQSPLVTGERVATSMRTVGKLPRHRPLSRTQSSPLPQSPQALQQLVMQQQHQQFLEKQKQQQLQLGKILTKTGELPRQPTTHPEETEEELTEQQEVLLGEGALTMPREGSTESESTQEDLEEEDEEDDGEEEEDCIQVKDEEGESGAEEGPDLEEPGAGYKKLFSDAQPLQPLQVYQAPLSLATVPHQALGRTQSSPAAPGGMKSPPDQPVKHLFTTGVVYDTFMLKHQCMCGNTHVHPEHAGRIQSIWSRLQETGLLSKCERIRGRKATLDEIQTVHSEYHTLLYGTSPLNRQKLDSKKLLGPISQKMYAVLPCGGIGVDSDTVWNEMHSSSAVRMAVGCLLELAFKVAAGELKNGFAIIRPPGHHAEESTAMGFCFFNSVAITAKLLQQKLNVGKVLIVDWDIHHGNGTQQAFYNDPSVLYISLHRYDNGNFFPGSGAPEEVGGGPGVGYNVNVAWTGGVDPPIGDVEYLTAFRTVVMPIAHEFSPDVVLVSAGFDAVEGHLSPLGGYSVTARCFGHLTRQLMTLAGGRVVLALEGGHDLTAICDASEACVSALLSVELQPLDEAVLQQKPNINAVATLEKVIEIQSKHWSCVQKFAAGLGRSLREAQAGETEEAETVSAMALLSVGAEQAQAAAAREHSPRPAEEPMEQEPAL
# Description: as §1, §2
# HDAC 8 = molecular target: T5, HDAC 8 (Homo sapiens, UniProt Q9BY41)
# T5 sequence (Q9BY41 1-377): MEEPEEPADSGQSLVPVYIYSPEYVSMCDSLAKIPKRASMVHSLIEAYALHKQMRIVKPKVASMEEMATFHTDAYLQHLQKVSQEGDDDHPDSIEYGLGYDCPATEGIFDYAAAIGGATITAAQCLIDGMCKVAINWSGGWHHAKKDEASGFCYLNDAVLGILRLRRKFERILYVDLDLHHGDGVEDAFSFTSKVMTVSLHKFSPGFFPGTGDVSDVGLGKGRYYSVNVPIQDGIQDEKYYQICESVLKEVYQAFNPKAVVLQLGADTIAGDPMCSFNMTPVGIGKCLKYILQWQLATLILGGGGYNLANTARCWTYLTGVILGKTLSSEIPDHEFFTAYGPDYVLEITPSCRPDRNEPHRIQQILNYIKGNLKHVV
# Description: as §1, §2
# HDAC 9 = HDAC 9 (Homo sapiens, UniProt Q9UKV0)
# HDAC 9, sequence (Q9UKV0 whole entry): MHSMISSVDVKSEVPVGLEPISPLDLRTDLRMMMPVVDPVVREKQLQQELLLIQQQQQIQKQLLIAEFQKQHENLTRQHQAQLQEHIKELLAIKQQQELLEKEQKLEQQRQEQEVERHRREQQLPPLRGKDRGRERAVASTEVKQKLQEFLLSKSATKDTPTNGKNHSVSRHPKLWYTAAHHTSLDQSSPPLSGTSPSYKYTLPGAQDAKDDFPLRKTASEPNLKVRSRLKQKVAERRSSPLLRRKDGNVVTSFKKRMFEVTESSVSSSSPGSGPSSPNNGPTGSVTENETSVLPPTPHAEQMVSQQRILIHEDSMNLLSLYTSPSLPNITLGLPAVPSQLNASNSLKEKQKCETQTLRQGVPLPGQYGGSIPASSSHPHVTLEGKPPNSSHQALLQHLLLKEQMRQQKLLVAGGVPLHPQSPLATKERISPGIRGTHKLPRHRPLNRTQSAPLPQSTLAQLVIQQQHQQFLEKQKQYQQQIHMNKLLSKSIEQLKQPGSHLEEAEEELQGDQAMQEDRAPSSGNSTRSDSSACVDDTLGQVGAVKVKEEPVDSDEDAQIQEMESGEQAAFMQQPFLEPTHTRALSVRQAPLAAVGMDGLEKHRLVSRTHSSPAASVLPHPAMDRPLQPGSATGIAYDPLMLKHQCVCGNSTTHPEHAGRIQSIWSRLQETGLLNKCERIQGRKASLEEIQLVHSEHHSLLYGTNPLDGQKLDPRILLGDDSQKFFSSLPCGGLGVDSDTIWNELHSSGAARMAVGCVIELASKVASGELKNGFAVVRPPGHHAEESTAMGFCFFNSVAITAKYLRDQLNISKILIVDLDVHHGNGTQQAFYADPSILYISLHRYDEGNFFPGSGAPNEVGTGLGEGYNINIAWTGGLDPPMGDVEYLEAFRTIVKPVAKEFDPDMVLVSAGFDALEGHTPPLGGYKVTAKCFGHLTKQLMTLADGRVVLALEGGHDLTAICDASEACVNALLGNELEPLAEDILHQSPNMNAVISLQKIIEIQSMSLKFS
# Description: as §1, §2
# HDAC1 = HDAC1 (Homo sapiens, UniProt Q13547); assay: HDAC 1 fluorogenic assay kit
# HDAC1, sequence (Q13547 whole entry): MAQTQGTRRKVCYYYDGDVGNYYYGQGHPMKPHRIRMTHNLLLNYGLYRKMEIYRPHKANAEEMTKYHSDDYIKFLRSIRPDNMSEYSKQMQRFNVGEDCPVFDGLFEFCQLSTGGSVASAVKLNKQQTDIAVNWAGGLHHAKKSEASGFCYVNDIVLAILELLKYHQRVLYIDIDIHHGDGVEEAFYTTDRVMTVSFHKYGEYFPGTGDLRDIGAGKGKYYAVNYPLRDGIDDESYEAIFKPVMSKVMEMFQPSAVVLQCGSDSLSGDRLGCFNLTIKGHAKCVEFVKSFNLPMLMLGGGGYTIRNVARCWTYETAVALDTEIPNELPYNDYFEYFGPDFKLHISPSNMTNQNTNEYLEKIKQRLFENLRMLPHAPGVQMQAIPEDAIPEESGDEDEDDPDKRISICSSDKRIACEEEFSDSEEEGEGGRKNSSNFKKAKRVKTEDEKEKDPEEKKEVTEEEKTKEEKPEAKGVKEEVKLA
# Description: as §1, §2
# HDAC 4 = HDAC 4 (Homo sapiens, UniProt P56524); assay: HDAC 4 fluorogenic assay kit
# HDAC 4, sequence (P56524 whole entry): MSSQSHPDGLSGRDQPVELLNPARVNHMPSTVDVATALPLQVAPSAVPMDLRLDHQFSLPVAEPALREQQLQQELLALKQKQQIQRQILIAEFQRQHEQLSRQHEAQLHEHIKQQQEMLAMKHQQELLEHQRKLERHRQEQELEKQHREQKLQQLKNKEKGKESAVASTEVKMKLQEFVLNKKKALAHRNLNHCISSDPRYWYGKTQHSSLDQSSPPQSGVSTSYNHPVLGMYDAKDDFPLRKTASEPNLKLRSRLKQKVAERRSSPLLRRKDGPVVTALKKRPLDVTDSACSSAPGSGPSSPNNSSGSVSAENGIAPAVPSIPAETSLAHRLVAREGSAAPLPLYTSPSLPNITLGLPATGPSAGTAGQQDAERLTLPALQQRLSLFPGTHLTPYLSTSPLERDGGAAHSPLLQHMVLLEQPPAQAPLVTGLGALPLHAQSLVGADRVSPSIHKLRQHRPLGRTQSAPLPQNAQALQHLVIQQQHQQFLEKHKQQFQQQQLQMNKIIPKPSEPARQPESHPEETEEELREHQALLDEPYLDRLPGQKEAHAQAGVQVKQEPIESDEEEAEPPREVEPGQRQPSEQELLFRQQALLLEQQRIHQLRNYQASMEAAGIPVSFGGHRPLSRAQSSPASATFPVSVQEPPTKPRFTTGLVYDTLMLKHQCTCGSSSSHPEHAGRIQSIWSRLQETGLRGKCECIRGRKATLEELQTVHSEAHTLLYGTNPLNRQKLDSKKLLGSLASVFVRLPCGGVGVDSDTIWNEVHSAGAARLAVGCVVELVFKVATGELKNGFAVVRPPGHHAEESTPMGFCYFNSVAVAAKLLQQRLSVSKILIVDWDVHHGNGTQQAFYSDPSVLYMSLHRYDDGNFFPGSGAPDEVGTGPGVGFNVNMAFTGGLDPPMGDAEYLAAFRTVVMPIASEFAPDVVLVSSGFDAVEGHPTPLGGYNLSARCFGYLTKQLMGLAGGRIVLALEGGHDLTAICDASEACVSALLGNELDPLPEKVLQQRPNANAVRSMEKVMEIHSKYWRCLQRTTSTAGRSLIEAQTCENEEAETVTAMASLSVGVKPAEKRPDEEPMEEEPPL
# Description: as §1, §2
structure (smiles),measurement,setting,value
"CCCC(=O)NCCCC[C@H](NC(=O)CCC)C(=O)[O-].CCCC(=O)NCCCC[C@H](NC(=O)CCC)C(=O)[O-].[Zn+2] [Zn di-(di-n-butyryl lysinate), Zinc di-(di-n-butyryl lysinate)]","HDAC 11 activity, % of water-treated controls",HDAC 11; 5 ug/ml,102%
same,"HDAC 11 activity, % of water-treated controls",HDAC 11; 25 ug/ml,63%
same,"HDAC 11 activity, % of water-treated controls",HDAC 11; 50 ug/ml,17%
same,"HDAC 11 activity, % of water-treated controls",HDAC 11; 100 ug/ml,22%
same,"HDAC 11 activity, % of water-treated controls",HDAC 11; 200 ug/ml,43%
same,FAAH IC50,FAAH,368.7 µg/mL
same,FABP-5 IC50,FABP-5,644 µg/mL
same,MAGL IC50,MAGL,88.8 µg/mL
same,"HDAC 2 activity, % of water-treated controls",HDAC2; 25 ug/ml,20%
same,"HDAC 2 activity, % of water-treated controls",HDAC2; 50 ug/ml,20%
same,"HDAC 2 activity, % of water-treated controls",HDAC2; 100 ug/ml,17%
same,"HDAC 2 activity, % of water-treated controls",HDAC2; 200 ug/ml,15%
same,"HDAC 5 activity, % of water-treated controls",HDAC 5; 25 ug/ml,89%
same,"HDAC 5 activity, % of water-treated controls",HDAC 5; 50 ug/ml,65%
same,"HDAC 5 activity, % of water-treated controls",HDAC 5; 100 ug/ml,33%
same,"HDAC 5 activity, % of water-treated controls",HDAC 5; 200 ug/ml,17%
same,"HDAC 8 activity, % of water-treated controls",HDAC 8; 5 ug/ml,15%
same,"HDAC 8 activity, % of water-treated controls",HDAC 8; 25 ug/ml,15%
same,"HDAC 8 activity, % of water-treated controls",HDAC 8; 50 ug/ml,15%
same,"HDAC 8 activity, % of water-treated controls",HDAC 8; 100 ug/ml,13%
same,"HDAC 8 activity, % of water-treated controls",HDAC 8; 200 ug/ml,17%
same,"HDAC 9 activity, % of water-treated controls",HDAC 9; 5 ug/ml,39%
same,"HDAC 9 activity, % of water-treated controls",HDAC 9; 25 ug/ml,29%
same,"HDAC 9 activity, % of water-treated controls",HDAC 9; 50 ug/ml,25%
same,"HDAC 9 activity, % of water-treated controls",HDAC 9; 100 ug/ml,19%
same,"HDAC 9 activity, % of water-treated controls",HDAC 9; 200 ug/ml,20%
same,"HDAC 1 activity, % of water-treated controls",HDAC1; 5 ug/ml,30%
same,"HDAC 1 activity, % of water-treated controls",HDAC1; 25 ug/ml,32%
same,"HDAC 1 activity, % of water-treated controls",HDAC1; 50 ug/ml,38%
same,"HDAC 1 activity, % of water-treated controls",HDAC1; 100 ug/ml,49%
same,"HDAC 1 activity, % of water-treated controls",HDAC1; 200 ug/ml,45%
same,"HDAC 4 activity, % of water-treated controls",HDAC 4; 25 ug/ml,120%
same,"HDAC 4 activity, % of water-treated controls",HDAC 4; 50 ug/ml,60%
same,"HDAC 4 activity, % of water-treated controls",HDAC 4; 100 ug/ml,39%
"CCCC(=O)N[C@@H](CC(C)C)C(=O)[O-].CCCC(=O)N[C@@H](CC(C)C)C(=O)[O-].[Zn+2] [Zn di-(n-butyryl leucinate), Zinc di-(n-butyryl leucinate)]","HDAC 11 activity, % of water-treated controls",HDAC 11; 5 ug/ml,102%
same,"HDAC 11 activity, % of water-treated controls",HDAC 11; 25 ug/ml,100%
same,"HDAC 11 activity, % of water-treated controls",HDAC 11; 50 ug/ml,93%
same,"HDAC 11 activity, % of water-treated controls",HDAC 11; 100 ug/ml,71%
same,"HDAC 11 activity, % of water-treated controls",HDAC 11; 200 ug/ml,39%
same,FAAH IC50,FAAH,41.3 µg/mL
same,FABP-5 IC50,FABP-5,390.5 µg/mL
same,MAGL IC50,MAGL,88.3 µg/mL
same,"HDAC 2 activity, % of water-treated controls",HDAC2; 25 ug/ml,39%
same,"HDAC 2 activity, % of water-treated controls",HDAC2; 50 ug/ml,37%
same,"HDAC 2 activity, % of water-treated controls",HDAC2; 100 ug/ml,31%
same,"HDAC 2 activity, % of water-treated controls",HDAC2; 200 ug/ml,28%
same,"HDAC 5 activity, % of water-treated controls",HDAC 5; 25 ug/ml,128%
same,"HDAC 5 activity, % of water-treated controls",HDAC 5; 50 ug/ml,91%
same,"HDAC 5 activity, % of water-treated controls",HDAC 5; 100 ug/ml,50%
same,"HDAC 5 activity, % of water-treated controls",HDAC 5; 200 ug/ml,26%
same,"HDAC 8 activity, % of water-treated controls",HDAC 8; 5 ug/ml,7%
same,"HDAC 8 activity, % of water-treated controls",HDAC 8; 25 ug/ml,16%
same,"HDAC 8 activity, % of water-treated controls",HDAC 8; 50 ug/ml,16%
same,"HDAC 8 activity, % of water-treated controls",HDAC 8; 100 ug/ml,16%
same,"HDAC 8 activity, % of water-treated controls",HDAC 8; 200 ug/ml,14%
same,"HDAC 9 activity, % of water-treated controls",HDAC 9; 5 ug/ml,15%
same,"HDAC 9 activity, % of water-treated controls",HDAC 9; 25 ug/ml,49%
same,"HDAC 9 activity, % of water-treated controls",HDAC 9; 50 ug/ml,44%
same,"HDAC 9 activity, % of water-treated controls",HDAC 9; 100 ug/ml,30%
same,"HDAC 9 activity, % of water-treated controls",HDAC 9; 200 ug/ml,22%
